The values below come from US5409953A, “Isolation, structural elucidation and synthesis of novel antineoplastic substances denominated "combretastatins"” (Arizona Board of Regents acting on behalf of Arizona State …, priority 1992, dated 1995).

In assay [1] the test system is tubulin. The experiment in a line: in vitro interactions with tubulin (overall comparison). The class given is biochemical. The protocol:
(§1) The assembly reaction at 37° C. was followed turbidimetrically as described by Hamel et al, Biochem. Pharmacal., 32, p.
(§2) Incubation was for 10 minutes at 37° C.

In assay [2] the test system is murine P388 lymphocytic leukemia (PS system). Description: inhibition of PS cell line growth (Ed50). The class given is cell-based. Particulars: for IC50: Mus musculus.
The subject of assay [3] is tubulin. Description: microtubule assembly (turbidimetric). To be noted: for IC50: Experiment I; for inhibition of microtubule assembly / tubulin polymerization in words: comparison with reference agents. The class given is biochemical. The protocol:
as §1

Assay [4] relates to tubulin. The experiment in a line: binding of [3H]colchicine to tubulin. To be noted: Experiment II; for colchicine binding, % of control: 5 μM [3H]colchicine, competing drug at 5 μM, 10 minutes at 37° C. As for the experimental part:
as §2

Assay [5] relates to murine P388 lymphocytic leukemia (PS system). Description: PS in vivo life extension. To be noted: 2.75-11 mg/kg dose levels.
Assay [6] relates to tubulin. Particulars: cited from earlier work.
The subject of another assay is NCI astrocytoma. The experiment in a line: NCI astrocytoma bioassay. The class given is cell-based.
[7] abbreviates: read-out: concentration giving equivalent inhibition of microtubule assembly.
The mark [8] stands for this setting: read-out: ID50, drug concentration inhibiting the extent of microtubule assembly by 50%, 37° C., 1.5 mg/ml tubulin, 0.5 mg/ml microtubule-associated proteins.

In brackets after ≈: the same amount, converted by molar mass. Entries after “also recorded” stand apart in the source; their conditions may differ. Like-named read-outs stand apart in the source and are kept apart here.

Regarding `COc1ccc(CCc2cc(OC)c(OC)c(OC)c2)c(O)c1O` [Combretastatin B-1], the “interactions with tubulin in words” value in the assay with tubulin [1] is “significantly more potent than the previously described combretastatin”. The same compound came in with an IC50 in assay [2] (P388 (PS) cell line) of 1.7 µg/mL (≈ 5.08 µM). The IC50 with tubulin [3] (setting [7]) is 3000 nM. Moreover, the “inhibition of microtubule assembly / tubulin polymerization in words” value in the assay with tubulin [3] is “comparable to that observed with podophyllotoxin and greater than that observed with colchicine and steganacin”. In the assay on tubulin [4], the “inhibition of binding of (3H)colchicine to tubulin in words” value is reported as “particularly potent” and the “colchicine binding, % of control” value is on record as 13 % of control.
For `COc1cc(CCc2ccc(O)cc2)cc(OC)c1OC` [4'-hydroxy-3,4,5-trimethoxy bibenzyl], in assay [2] (P388 (PS) cell line), the IC50 worked out at 0.25 µg/mL (≈ 0.867 µM).
`COc1cc(CCc2ccc(OC)c(O)c2)cc(OC)c1` [3'-hydroxy-3,4',5-trimethoxy bibenzyl] gave an IC50 in assay [2] (P388 (PS) cell line) of 1.7 µg/mL (≈ 5.9 µM).
Same read-out and setting: as for `COc1cc(CCc2ccc(O)c(O)c2)cc(OC)c1` [Combretastatin B-4], the figure is 1.7 µg/mL (≈ 6.2 µM).
For the compound `COc1ccc(/C=C\c2cc(OC)c(OC)c(OC)c2)c(O)c1O` [Combretastatin A-1], the “increase in life extension” value in assay [5] is on record as 26-29%. Also, the “interactions with tubulin in words” value in the assay on tubulin [1] is on record as “more active than combretastatin B-1; also recorded: significantly more potent than the previously described combretastatin”. The IC50 in assay [2] (P388 (PS) cell line) was 0.99 µg/mL (≈ 2.98 µM); in the assay on tubulin [3] (setting [7]), 2000 nM. In addition, the “inhibition of microtubule assembly / tubulin polymerization in words” value in the assay with tubulin [3] is “more potent than combretastatin and the well known tubulin inhibitors colchicine and podophylotoxin”; in the assay with tubulin [3] (listed as combretastatins A-1), “comparable to that observed with podophyllotoxin and greater than that observed with colchicine and steganacin”. In addition, in the assay on tubulin [3] (complete inhibition), the “concentration completely inhibiting microtubulin assembly in vitro” value is “less than 1.5 μmolar”. In addition, the “inhibition of binding of (3H)colchicine to tubulin in words” value in the assay on tubulin [4] is “particularly potent”. In the assay with tubulin [4], the “colchicine binding, % of control” value is 2.2 % of control.
In assay [2] (P388 (PS) cell line), `COc1ccc(/C=C\c2cc(O)c(OC)c(OC)c2)cc1O` [Combretastatin A-3] gave an IC50 of 0.026 µg/mL (≈ 0.086 µM).
In assay [2] (P388 (PS) cell line), `COc1ccc(/C=C\c2cc(OC)c3c(c2)OCO3)cc1O` [Combretastatin A-2] showed an IC50 of 0.027 µg/mL (≈ 0.0899 µM).
`COc1ccc(CCc2cc(O)c(OC)c(OC)c2)cc1O` [Combretastatin B-2]: in assay [2] (P388 (PS) cell line), the IC50 worked out at 0.32 µg/mL (≈ 1.05 µM).
Consider `COc1cc2c(c(OC)c1OC)-c1cc3c(cc1C(OC(C)=O)[C@H]1COC(=O)[C@@H]1C2)OCO3` (stereo partly drawn) [Steganacin, reference compound], for which the “mode of inhibition of binding of radiolabeled colchicine” value in the assay on tubulin [6] is recorded as “competitive inhibitors”. In the assay on tubulin [3] (setting [8]), the IC50 worked out at 6000 nM. In the assay on tubulin [4], the “colchicine binding, % of control” value is recorded as 49 % of control.
On to `COc1cc([C@@H]2c3cc4c(cc3[C@H](O)[C@H]3COC(=O)[C@H]23)OCO4)cc(OC)c1OC` [Podophyllotoxin, reference compound], for which the “mode of inhibition of binding of radiolabeled colchicine” value in the assay with tubulin [6] was “competitive inhibitors”. Besides, in the assay with tubulin [3] (setting [8]), the IC50 is […]. In the assay with tubulin [4], the “colchicine binding, % of control” value was 13 % of control.
Take `COc1ccc(C[C@@H](O)c2cc(OC)c(OC)c(OC)c2)cc1O` [Combretastatin, R(-)-1-(3,4,5-tri-methoxyphenyl)-2-(3'-hydroxy, 4'-methoxyphenyl)-ethanol]: the “mode of inhibition of binding of radiolabeled colchicine” value in the assay on tubulin [6] is given as “competitive inhibitors”. For the same compound, the astrocyte reversal result in the assay on NCI astrocytoma was “pronounced astrocyte reversal”. The IC50 with tubulin [3] (setting [7]) worked out at 11000 nM. In addition, the “colchicine binding, % of control” value in the assay with tubulin [4] is on record as 34 % of control.
Turning to `COc1cc(CCc2ccc(O)c(O)c2)cc(OC)c1OC` [Combretastatin B-3], the IC50 in assay [2] (P388 (PS) cell line) stood at 0.4 µg/mL (≈ 1.31 µM).
Take `COc1cc(/C=C/c2ccc(OC)c(OC(C)=O)c2OC(C)=O)cc(OC)c1OC` [trans-isomer counter part, 2',3'-diacetoxy-4'-methoxy-E-combretastatin A-1]: in assay [2] (P388 (PS) cell line), the IC50 was 12 µg/mL (≈ 28.8 µM) and the “PS cell line activity in words” value was “essentially inactive”.
Compound `COc1cc(/C=C\c2ccc(OC)c(OC(C)=O)c2OC(C)=O)cc(OC)c1OC` [Combretastatin A-1 d lacerate, 2', 3'-diacetoxy-4'-methoxy-Z-combretastatin A-1] registered an IC50 in assay [2] (P388 (PS) cell line) of 2.7 µg/mL (≈ 6.48 µM). The “activity relative to parent natural product combretastatin A-1” value in assay [2] (PS cell line) is reported as “three-fold less active”.
